Read-outs that look alike come from different tables or passages of the source. Marks after values point to notes of the source that are not given here. Each block holds one molecule with its values, some of them ahead of it.
Assays:
MTS cytotoxicity assay = type: cell-based; conditions: mouse, RAW 264.7 macrophages (heading: LPS-induced), read-out: Cytotoxicity IC50 (LPS-induced RAW 264.7 cells)
Procedure: Using Dulbecco’s Modified Eagle Medium (DMEM, Biowest L0060) supplemented with 10% foetal bovine serum (FBS) (Biowest, S1810) and 1% anti-biotic and anti-mycotic (Biowest, L0010-100), the RAW264.7 macrophage cell line (ATCC ® TIB-71TM) was cultivated. The cells were then incubated at 37 °C with 5% CO2 until they were confluent, which should be between 70 and 80%. After two to three days, the growth media was regularly changed. Trypsin–EDTA was then used to wash and collect the cells (Biowest, L0931-500).
The MTS (3-(4,5-dimethylthiazol-2-yl)-5-(3-carboxymethoxy-phenyl)-2-(4-sulfophenyl)-2H-tetrazolium) test (Promega, ab197010) was used to determine cell viability. In short, a 96-well plate was seeded with 5 × 10^3 cells per well, and the cells were then incubated for 24 h at 37 °C and 5% CO2. The cells were then re-incubated for 24 h at 37 °C and 5% CO2 after the medium was discarded and replaced with 180 µl of fresh growth media and 20 µl of sample (1000 ug, 250 ug, 63 ug, 16 ug, and 4 ug µg/mL). 20 µl of MTS was then added to each well, and the mixture was incubated for three hours at 37 °C with 5% CO2. […] Control cells were those that received no treatment.

TNF-α = TNF-α production in LPS-activated RAW 264.7 macrophages (ELISA); conditions: Mus musculus, RAW264.7, read-out: TNF-α IC50
iNOS = test: Inducible nitric oxide synthase (iNOS) inhibition in LPS-induced RAW 264.7 cells (ELISA); type: cell-based; conditions: Mus musculus, RAW264.7
Source text: NO is produced from L-arginine by iNOS and is utilized in a variety of cell signaling processes. An inducible member of the NOS family, iNOS is increased during pro-inflammatory cytokine activity as a host-defense mechanism. A commercially available quantitative ELISA kit (ab253219 Mouse iNOS Simple Step ELISA® Kit) will be used to evaluate the iNOS enzyme activity of the substances in the cell lysate in accordance with the manufacturer’s instructions.

[1] = system: carrageenan-induced rat paw edema; test: Carrageenan-induced rat paw edema assay; type: in vivo; conditions: 25 mg/kg
PGE2 [2] = test: PGE2 production in LPS-activated RAW 264.7 macrophages (ELISA); conditions: Mus musculus, RAW264.7, read-out: PGE2 IC50
gastric mucosa = test: Ulcerogenic liability (ulcer index); type: in vivo; conditions: 50 mg/kg orally, three successive days, rats
Procedure: […]. […] Rats were divided into 7 groups and fasted for 18 h before drug administration. The control group received the vehicle (2.5% Tween 80). […] After 2 h, animals were fed. Rats were given the required dose orally for three successive days. After 2 h of the last dose, rats were sacrificed; the stomach of each rat was removed then opened along the greater curvature and rinsed with saline. In order to examine the stomach, it was stretched by pins on a corkboard. The gastric mucosa was carefully inspected for the occurrence of ulcers with the aid of an illuminated magnifying lens (l0x), then ulcer index was calculated according to the method described by Cho and Ogle. Lesions were counted and measured along the greater diameter using transparent ruler. Every five hemorrhagic spots were considered equivalent to 1 mm of ulcer. The ulcer index (mm) was calculated from the sum of the total length of ulcers and hemorrhagic spots in each stomach.

[3] = system: carrageenan-induced rat paw edema; test: Carrageenan-induced rat paw edema assay; type: in vivo; conditions: for Paw edema thickness ± SEM / Paw edema % inhibition: rat
Procedure: As previously described, paw thickness was evaluated at 1, 3, and 5 h following carrageenan injection at a dose of 50 mg/kg.

COX-2 [4] = molecular target: T1, COX-2 (Homo sapiens, UniProt P35354); conditions: cited from earlier work
T1 construct: purchased Biovision K547
T1 sequence (P35354 18-604): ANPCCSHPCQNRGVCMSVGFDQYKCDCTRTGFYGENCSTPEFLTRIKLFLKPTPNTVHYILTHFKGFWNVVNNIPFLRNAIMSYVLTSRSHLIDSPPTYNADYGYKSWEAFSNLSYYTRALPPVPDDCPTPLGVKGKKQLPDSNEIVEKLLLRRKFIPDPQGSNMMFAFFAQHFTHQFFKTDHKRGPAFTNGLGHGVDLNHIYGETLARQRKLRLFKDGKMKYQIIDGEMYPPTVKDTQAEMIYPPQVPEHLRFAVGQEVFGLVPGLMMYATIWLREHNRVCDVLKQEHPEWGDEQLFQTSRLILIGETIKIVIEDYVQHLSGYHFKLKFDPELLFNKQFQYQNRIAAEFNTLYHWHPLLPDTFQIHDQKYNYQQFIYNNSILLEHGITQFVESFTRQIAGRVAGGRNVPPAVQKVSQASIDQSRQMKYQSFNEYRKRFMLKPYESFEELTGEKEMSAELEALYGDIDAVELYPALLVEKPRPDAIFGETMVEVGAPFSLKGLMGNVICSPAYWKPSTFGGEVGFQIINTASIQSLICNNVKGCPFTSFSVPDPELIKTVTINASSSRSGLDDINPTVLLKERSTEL

PGE2 [5] = system: PGE2; set-up: method as in PMID 36166898; conditions: LPS-stimulated RAW cells; cited from earlier work
COX-2 [6] = molecular target: T1, COX-2; test: In vitro COX-2 inhibition (COX-2 Inhibitor Screening Kit-K547, Biovision); type: biochemical; conditions: for COX-2 S.I.: COX-1 IC50/COX-2 IC50; for IC50: mean of six values ± standard deviation
Procedure: (§1) The IC50 value of the tested compounds was determined.
COX-2 inhibitor Screening Protocol: Dissolve the tested compounds in DMSO. Use COX Assay Buffer to dilute the relevant test concentration by 10X before using. Place 10 µl of diluted test inhibitor or Assay Buffer in the specified wells instead of the sample screen (S) or enzyme control (EC; no inhibitor). […] Before using, combine 2 µl of COX Cofactor with 398 µl of COX Assay Buffer to dilute COX Cofactor 200 times. Blend thoroughly. Just before using, mix 5 µl of the provided arachidonic acid with 5 µl of NaOH to make the arachidonic acid solution. Combine quickly using a vortex. To dilute the arachidonic acid/NaOH solution 10 times, add 90 µl of water. There should be 80 µl of reaction mix in each well. Using a multi-channel pipette, add 10 µl of diluted arachidonic acid/NaOH solution into each well to initiate the reactions concurrently.

COX-1 = molecular target: T2, COX-1 (Ovis aries, UniProt P05979); test: In vitro COX-1 inhibition (COX-1 Inhibitor Screening Kit-K548, Biovision); type: biochemical; conditions: mean of six values ± standard deviation
T2 construct: purchased Biovision K548
T2 sequence (P05979 25-600): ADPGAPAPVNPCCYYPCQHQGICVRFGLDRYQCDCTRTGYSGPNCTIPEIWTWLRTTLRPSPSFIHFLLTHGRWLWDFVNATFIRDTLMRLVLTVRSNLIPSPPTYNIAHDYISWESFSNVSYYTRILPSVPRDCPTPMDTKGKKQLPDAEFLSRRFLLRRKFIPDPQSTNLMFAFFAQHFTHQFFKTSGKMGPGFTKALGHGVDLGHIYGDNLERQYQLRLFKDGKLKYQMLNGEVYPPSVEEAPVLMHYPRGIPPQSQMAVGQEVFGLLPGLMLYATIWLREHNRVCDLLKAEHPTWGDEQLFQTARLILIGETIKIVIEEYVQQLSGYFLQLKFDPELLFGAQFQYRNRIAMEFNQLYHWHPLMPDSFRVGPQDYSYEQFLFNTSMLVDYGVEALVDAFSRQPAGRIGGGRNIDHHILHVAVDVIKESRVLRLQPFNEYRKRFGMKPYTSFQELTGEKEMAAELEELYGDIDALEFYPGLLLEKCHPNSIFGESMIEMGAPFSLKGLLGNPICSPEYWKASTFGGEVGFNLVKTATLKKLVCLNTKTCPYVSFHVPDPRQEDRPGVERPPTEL
Procedure: as §1
COX-1 inhibitor Screening Protocol: Dissolve the tested compounds in DMSO. Use COX assay buffer to dilute the relevant test concentration by 10X before using. Place 10 µl of diluted test inhibitor or assay buffer in the specified wells instead of the sample screen (S) or enzyme control (EC; no inhibitor). To one of the wells, add 2 µl of SC560 and 8 µl of COX Assay Buffer as an inhibitor control (IC). Before using, combine 2 µl of COX Cofactor with 398 µl of COX Assay Buffer to dilute COX cofactor 200 times. Blend thoroughly. Just before using, mix 5 µl of the provided arachidonic acid with 5 µl of NaOH to make the arachidonic acid solution. Combine quickly using a vortex. To dilute the arachidonic acid/NaOH solution 10 times, add 90 µl of water. There should be 80 µl of reaction mix in each well. Using a multi-channel pipette, add 10 µl of diluted arachidonic acid/NaOH solution to each well to initiate all the reactions at once.

[7] = 3 h after carrageenan, 50 mg/kg
[8] = 5 h after carrageenan, 50 mg/kg

SMILES: Cc1ccc(-c2cc(C(F)(F)F)nn2-c2ccc(S(N)(=O)=O)cc2)cc1 [Celecoxib, celecoxib, reference compound]
- IC50 at 24 h (MTS cytotoxicity assay): 149 ± 5.3 µM
- IC50 (TNF-α): 0.87 ± 0.03 µM
- IC50 (iNOS): 0.48 ± 0.04 µM
- % inhibition (edema) [1]: 34.97%
- IC50 (PGE2 [2]): 0.38 ± 0.027 µM
- Average no of ulcer (gastric mucosa): 0.48 ± 0.015***^b
- Average severity (gastric mucosa): 0.66 ± 0.026***^b
- % inhibition (edema) ([3]; 50 mg/kg): 97.48%
- Paw edema thickness ± SEM ([3]; 1 h after carrageenan, 50 mg/kg): 3.43 ± 0.004 mm
- Paw edema % inhibition [3, 7]: 38.3%
- Paw edema thickness ± SEM [3, 7]: 3.1 ± 0.011 mm
- Paw edema % inhibition [3, 8]: 56.3%
- Paw edema thickness ± SEM [3, 8]: 2.52 ± 0.0095 mm
- ED50 ([3]; Rattus norvegicus, dose producing 50% edema inhibition): 40.4 mg/kg

SMILES: Cc1ccc(N/N=C2\C(=N)N(c3ccc(S(N)(=O)=O)cc3)N=C2N)cc1 [Compound 8a]
- COX-2 selectivity index (S.I.) (COX-2 [4]): 8.41

SMILES: N=C1/C(=N\Nc2ccc(Cl)cc2)C(N)=NN1c1ccc(S(N)(=O)=O)cc1 [Compound 8b]
- COX-2 selectivity index (S.I.) (COX-2 [4]): 10.55

SMILES: O=C(O)COc1ccc(C(=O)/C=C/c2cn(-c3ccccc3)nc2-c2ccc([N+](=O)[O-])cc2)cc1 [Compound 10]
- IC50 (PGE2 [5]): 11 µM

- COX-2 S.I. (COX-2 [6]): 15.07
- IC50 (COX-2 [6]): 0.575 ± 0.019 µM
- IC50 (COX-1): 8.59 ± 0.33 µM
SMILES: CCOC(=O)COc1ccc(C2=NN(c3ccc(S(C)(=O)=O)cc3)C(c3ccccc3Br)C2)cc1 (centres unmarked) [Compound 15 g, Ethyl 2-(4-(5-(2-bromophenyl)-1-(4-(methylsulfonyl)phenyl)-4,5-dihydro-1H-pyrazol-3-yl)phenoxy)acetate]

- COX-2 S.I. (COX-2 [6]): 1.90
- IC50 (COX-2 [6]): 3.9 ± 0.129 µM
- IC50 (COX-1): 7.42 ± 0.45 µM
SMILES: CCOC(=O)COc1ccc(C2=NN(c3ccc(S(C)(=O)=O)cc3)C(c3ccccc3)C2)cc1 (centres unmarked) [Compound 15a, Ethyl 2-(4-(1-(4-(methylsulfonyl)phenyl)-5-phenyl-4,5-dihydro-1H-pyrazol-3-yl)phenoxy) acetate]

- COX-2 S.I. (COX-2 [6]): 5.89
- IC50 (COX-2 [6]): 1.94 ± 0.064 µM
- IC50 (COX-1): 11.4 ± 0.42 µM
SMILES: CCOC(=O)COc1ccc(C2=NN(c3ccc(S(C)(=O)=O)cc3)C(c3ccc(C)cc3)C2)cc1 (centres unmarked) [Compound 15b, Ethyl 2-(4-(1-(4-(methylsulfonyl)phenyl)-5-(p-tolyl)-4,5-dihydro-1H-pyrazol-3-yl)phenoxy)acetate]

- COX-2 S.I. (COX-2 [6]): 4.05
- IC50 (COX-2 [6]): 0.742 ± 0.025 µM
- IC50 (COX-1): 3.01 ± 0.12 µM
SMILES: CCOC(=O)COc1ccc(C2=NN(c3ccc(S(C)(=O)=O)cc3)C(c3ccc(Cl)cc3)C2)cc1 (centres unmarked) [Compound 15e, Ethyl 2-(4-(5-(4-chlorophenyl)-1-(4-(methylsulfonyl)phenyl)-4,5-dihydro-1H-pyrazol-3-yl)phenoxy)acetate]

- COX-2 S.I. (COX-2 [6]): 4.30
- IC50 (COX-2 [6]): 1.59 ± 0.052 µM
- IC50 (COX-1): 6.83 ± 0.25 µM
SMILES: CCOC(=O)COc1ccc(C2=NN(c3ccc(S(C)(=O)=O)cc3)C(c3ccc([N+](=O)[O-])cc3)C2)cc1 (centres unmarked) [Compound 15f, Ethyl 2-(4-(1-(4-(methylsulfonyl)phenyl)-5-(4-nitrophenyl)-4,5-dihydro-1H-pyrazol-3-yl)phenoxy)acetate]

— article PMC12926254, “Novel pyrazole carboxylate derivatives as lonazolac bioisosteres with selective COX-2 inhibition: design, synthesis and anti-inflammatory activity” (Molecular Diversity, 2025)
